Drawing on patent publication US11541028B2, “Peptide pharmaceuticals for treatment of NASH and other disorders” (Mederis Diabetes LLC, priority 2018, dated 2023), this text covers EC50 for 9 compounds.

The structures appear in SMILES notation. Like-named read-outs stand apart in the source and are kept apart here.

One assay concerns the target T1, human GLP-1 receptor (Homo sapiens, UniProt P43220).
T1 construct: host or cells: CHO cells
The assay can be described thus: DiscoveRx LeadHunter cellular assay, cAMP stimulation, GLP-1 receptor in CHO cells. The assay is classed as cell-based. The following applies: human GLP-1 receptor in CHO cells (DiscoveRx); read-out: EC50 cAMP GLP-1 R.

In another assay the target is T2, human glucagon receptor (Homo sapiens, UniProt P47871).
T2 construct: host or cells: CHO cells
T2 sequence (P47871 26-477): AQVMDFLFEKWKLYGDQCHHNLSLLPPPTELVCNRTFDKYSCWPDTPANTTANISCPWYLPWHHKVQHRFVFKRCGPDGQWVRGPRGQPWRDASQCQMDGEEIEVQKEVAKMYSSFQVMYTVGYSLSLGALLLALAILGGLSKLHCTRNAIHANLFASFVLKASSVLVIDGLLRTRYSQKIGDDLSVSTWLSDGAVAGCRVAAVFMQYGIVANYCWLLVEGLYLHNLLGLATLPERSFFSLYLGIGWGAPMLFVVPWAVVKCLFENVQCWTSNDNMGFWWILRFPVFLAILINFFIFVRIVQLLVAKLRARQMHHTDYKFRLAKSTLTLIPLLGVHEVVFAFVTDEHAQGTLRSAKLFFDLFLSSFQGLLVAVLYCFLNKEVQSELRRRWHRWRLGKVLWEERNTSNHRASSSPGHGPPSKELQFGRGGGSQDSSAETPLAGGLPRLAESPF
The assay can be described thus: DiscoveRx LeadHunter cellular assay, cAMP stimulation, glucagon receptor in CHO cells. The assay is classed as cell-based.

T1 sequence (P43220 24-463): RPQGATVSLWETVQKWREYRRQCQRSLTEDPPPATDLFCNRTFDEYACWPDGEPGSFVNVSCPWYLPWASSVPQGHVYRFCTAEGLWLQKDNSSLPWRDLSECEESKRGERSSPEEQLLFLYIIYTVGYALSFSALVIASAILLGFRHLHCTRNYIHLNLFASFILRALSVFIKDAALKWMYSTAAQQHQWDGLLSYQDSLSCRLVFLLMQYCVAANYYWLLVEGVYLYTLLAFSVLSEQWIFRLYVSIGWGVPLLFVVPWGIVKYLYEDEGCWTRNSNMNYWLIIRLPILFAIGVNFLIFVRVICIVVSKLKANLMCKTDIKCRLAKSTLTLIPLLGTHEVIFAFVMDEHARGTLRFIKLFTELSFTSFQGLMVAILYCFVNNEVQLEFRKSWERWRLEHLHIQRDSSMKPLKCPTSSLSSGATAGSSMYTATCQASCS
Protocol for human GLP-1 receptor: (§1) A further series of cellular assays was carried out with standard cellular assays (DiscoveRx, LeadHunter assays) using readout of cAMP stimulation or arrestin activation. Compounds were weighed precisely in an amount of about 1 mg and shipped to DiscoveRx for dilution and assay.
Protocol for human glucagon receptor: as §1

Regarding `CCCCCCCCCCCCCCO[C@@H]1O[C@H](C(=O)NCCCC[C@H](NC(=O)[C@@H](NC(=O)[C@H](Cc2ccccc2)NC(=O)[C@H](CCC(=O)O)NC(=O)[C@@H]2CCCCNC(=O)CC[C@H](NC(=O)[C@H](CC(=O)O)NC(=O)[C@H](CC(C)C)NC(=O)[C@H](Cc3ccc(O)cc3)NC(=O)[C@H](CCCCN)NC(=O)[C@H](CO)NC(=O)[C@H](Cc3ccc(O)cc3)NC(=O)[C@H](CC(=O)O)NC(=O)[C@H](CO)NC(=O)[C@@H](NC(=O)[C@H](Cc3ccccc3)NC(=O)[C@@H](NC(=O)CNC(=O)[C@H](CCC(N)=O)NC(=O)C(C)(C)NC(=O)[C@@H](N)Cc3c[nH]cn3)[C@@H](C)O)[C@@H](C)O)C(=O)N[C@@H](CCC(N)=O)C(=O)N[C@@H](C)C(=O)N[C@@H](C)C(=O)N2)[C@@H](C)CC)C(=O)N[C@@H](Cc2c[nH]c3ccccc23)C(=O)N[C@@H](CC(C)C)C(=O)N[C@@H](CC(C)C)C(=O)N[C@@H](CCC(N)=O)C(=O)N[C@H](C(=O)NCCOCCOCCOCCOCCOCCOCCOCCOCCC(=O)O)[C@@H](C)O)[C@@H](O)[C@H](O)[C@H]1O` [EU-A1646], the results for the 50% effective concentration (EC50) on human GLP-1 receptor and on human glucagon receptor were 0.029 nM and 0.332 nM, respectively.
Taken in the same sequence, the figures for `CCCCCCCCCCCCCCCCO[C@@H]1O[C@H](C(=O)NCCCC[C@H](NC(=O)[C@@H](NC(=O)[C@H](Cc2ccccc2)NC(=O)[C@H](CCC(=O)O)NC(=O)[C@@H]2CCCCNC(=O)CC[C@H](NC(=O)[C@H](CC(=O)O)NC(=O)[C@H](CC(C)C)NC(=O)[C@H](Cc3ccc(O)cc3)NC(=O)[C@H](CCCCN)NC(=O)[C@H](CO)NC(=O)[C@H](Cc3ccc(O)cc3)NC(=O)[C@H](CC(=O)O)NC(=O)[C@H](CO)NC(=O)[C@@H](NC(=O)[C@H](Cc3ccccc3)NC(=O)[C@@H](NC(=O)CNC(=O)[C@H](CCC(N)=O)NC(=O)C(C)(C)NC(=O)[C@@H](N)Cc3c[nH]cn3)[C@@H](C)O)[C@@H](C)O)C(=O)N[C@@H](CCC(N)=O)C(=O)N[C@@H](C)C(=O)N[C@@H](C)C(=O)N2)[C@@H](C)CC)C(=O)N[C@@H](Cc2c[nH]c3ccccc23)C(=O)N[C@@H](CC(C)C)C(=O)N[C@@H](CC(C)C)C(=O)N[C@@H](CCC(N)=O)C(=O)N[C@H](C(=O)NCCOCCOCCOCCOCCOCCOCCOCCOCCC(=O)O)[C@@H](C)O)[C@@H](O)[C@H](O)[C@H]1O` [EU-A1647] were 0.113 nM and 1.9 nM.
For `CCCCCCCCO[C@@H]1O[C@H](C(=O)NCCCC[C@H](NC(=O)[C@@H](NC(=O)[C@H](Cc2ccccc2)NC(=O)[C@H](CCC(=O)O)NC(=O)[C@@H]2CCCCNC(=O)CC[C@H](NC(=O)[C@H](CC(=O)O)NC(=O)[C@H](CC(C)C)NC(=O)[C@H](Cc3ccc(O)cc3)NC(=O)[C@H](CCCCN)NC(=O)[C@H](CO)NC(=O)[C@H](Cc3ccc(O)cc3)NC(=O)[C@H](CC(=O)O)NC(=O)[C@H](CO)NC(=O)[C@@H](NC(=O)[C@H](Cc3ccccc3)NC(=O)[C@@H](NC(=O)CNC(=O)[C@H](CCC(N)=O)NC(=O)C(C)(C)NC(=O)[C@@H](N)Cc3c[nH]cn3)[C@@H](C)O)[C@@H](C)O)C(=O)N[C@@H](CCC(N)=O)C(=O)N[C@@H](C)C(=O)N[C@@H](C)C(=O)N2)[C@@H](C)CC)C(=O)N[C@@H](Cc2c[nH]c3ccccc23)C(=O)N[C@@H](CC(C)C)C(=O)N[C@@H](CC(C)C)C(=O)N[C@@H](CCC(N)=O)C(=O)N[C@H](C(=O)O)[C@@H](C)O)[C@@H](O)[C@H](O)[C@H]1O` [EU-A1679] the same measures were 0.009 nM and 0.14 nM.
Taken in the same sequence, the figures for `CCCCCCCCCCO[C@@H]1O[C@H](C(=O)NCCCC[C@H](NC(=O)[C@@H](NC(=O)[C@H](Cc2ccccc2)NC(=O)[C@H](CCC(=O)O)NC(=O)[C@@H]2CCCCNC(=O)CC[C@H](NC(=O)[C@H](CC(=O)O)NC(=O)[C@H](CC(C)C)NC(=O)[C@H](Cc3ccc(O)cc3)NC(=O)[C@H](CCCCN)NC(=O)[C@H](CO)NC(=O)[C@H](Cc3ccc(O)cc3)NC(=O)[C@H](CC(=O)O)NC(=O)[C@H](CO)NC(=O)[C@@H](NC(=O)[C@H](Cc3ccccc3)NC(=O)[C@@H](NC(=O)CNC(=O)[C@H](CCC(N)=O)NC(=O)C(C)(C)NC(=O)[C@@H](N)Cc3c[nH]cn3)[C@@H](C)O)[C@@H](C)O)C(=O)N[C@@H](CCC(N)=O)C(=O)N[C@@H](C)C(=O)N[C@@H](C)C(=O)N2)[C@@H](C)CC)C(=O)N[C@@H](Cc2c[nH]c3ccccc23)C(=O)N[C@@H](CC(C)C)C(=O)N[C@@H](CC(C)C)C(=O)N[C@@H](CCC(N)=O)C(=O)N[C@H](C(=O)O)[C@@H](C)O)[C@@H](O)[C@H](O)[C@H]1O` [EU-A1680] were 0.026 nM and 0.114 nM.
Turning to `CCCCCCCCCCCCO[C@@H]1O[C@H](C(=O)NCCCC[C@H](NC(=O)[C@@H](NC(=O)[C@H](Cc2ccccc2)NC(=O)[C@H](CCC(=O)O)NC(=O)[C@@H]2CCCCNC(=O)CC[C@H](NC(=O)[C@H](CC(=O)O)NC(=O)[C@H](CC(C)C)NC(=O)[C@H](Cc3ccc(O)cc3)NC(=O)[C@H](CCCCN)NC(=O)[C@H](CO)NC(=O)[C@H](Cc3ccc(O)cc3)NC(=O)[C@H](CC(=O)O)NC(=O)[C@H](CO)NC(=O)[C@@H](NC(=O)[C@H](Cc3ccccc3)NC(=O)[C@@H](NC(=O)CNC(=O)[C@H](CCC(N)=O)NC(=O)C(C)(C)NC(=O)[C@@H](N)Cc3c[nH]cn3)[C@@H](C)O)[C@@H](C)O)C(=O)N[C@@H](CCC(N)=O)C(=O)N[C@@H](C)C(=O)N[C@@H](C)C(=O)N2)[C@@H](C)CC)C(=O)N[C@@H](Cc2c[nH]c3ccccc23)C(=O)N[C@@H](CC(C)C)C(=O)N[C@@H](CC(C)C)C(=O)N[C@@H](CCC(N)=O)C(=O)N[C@H](C(=O)O)[C@@H](C)O)[C@@H](O)[C@H](O)[C@H]1O` [EU-A1681], the EC50 at human GLP-1 receptor came out at 0.009 nM; at human glucagon receptor, 0.132 nM.
As for `CCCCCCCCCCCCCCO[C@@H]1O[C@H](C(=O)NCCCC[C@H](NC(=O)[C@@H](NC(=O)[C@H](Cc2ccccc2)NC(=O)[C@H](CCC(=O)O)NC(=O)[C@@H]2CCCCNC(=O)CC[C@H](NC(=O)[C@H](CC(=O)O)NC(=O)[C@H](CC(C)C)NC(=O)[C@H](Cc3ccc(O)cc3)NC(=O)[C@H](CCCCN)NC(=O)[C@H](CO)NC(=O)[C@H](Cc3ccc(O)cc3)NC(=O)[C@H](CC(=O)O)NC(=O)[C@H](CO)NC(=O)[C@@H](NC(=O)[C@H](Cc3ccccc3)NC(=O)[C@@H](NC(=O)CNC(=O)[C@H](CCC(N)=O)NC(=O)C(C)(C)NC(=O)[C@@H](N)Cc3c[nH]cn3)[C@@H](C)O)[C@@H](C)O)C(=O)N[C@@H](CCC(N)=O)C(=O)N[C@@H](C)C(=O)N[C@@H](C)C(=O)N2)[C@@H](C)CC)C(=O)N[C@@H](Cc2c[nH]c3ccccc23)C(=O)N[C@@H](CC(C)C)C(=O)N[C@@H](CC(C)C)C(=O)N[C@@H](CCC(N)=O)C(=O)N[C@H](C(=O)O)[C@@H](C)O)[C@@H](O)[C@H](O)[C@H]1O` [EU-A1682], the EC50 on human GLP-1 receptor is 0.21 nM; at human glucagon receptor, 1.26 nM.
Taken in the same sequence, the figures for `CCCCCCCCCCO[C@@H]1O[C@H](C(=O)NCCCC[C@H](N)C(=O)NCCCC[C@H](NC(=O)[C@@H](NC(=O)[C@H](Cc2ccccc2)NC(=O)[C@H](CCC(=O)O)NC(=O)[C@@H]2CCCCNC(=O)CC[C@H](NC(=O)[C@H](CC(=O)O)NC(=O)[C@H](CC(C)C)NC(=O)[C@H](Cc3ccc(O)cc3)NC(=O)[C@H](CCCCN)NC(=O)[C@H](CO)NC(=O)[C@H](Cc3ccc(O)cc3)NC(=O)[C@H](CC(=O)O)NC(=O)[C@H](CO)NC(=O)[C@@H](NC(=O)[C@H](Cc3ccccc3)NC(=O)[C@@H](NC(=O)CNC(=O)[C@H](CCC(N)=O)NC(=O)C(C)(C)NC(=O)[C@@H](N)Cc3c[nH]cn3)[C@@H](C)O)[C@@H](C)O)C(=O)N[C@@H](CCC(N)=O)C(=O)N[C@@H](C)C(=O)N[C@@H](C)C(=O)N2)[C@@H](C)CC)C(=O)N[C@@H](Cc2c[nH]c3ccccc23)C(=O)N[C@@H](CC(C)C)C(=O)N[C@@H](CC(C)C)C(=O)N[C@@H](CCC(N)=O)C(=O)N[C@H](C(N)=O)[C@@H](C)O)[C@@H](O)[C@H](O)[C@H]1O` [EU-A1710] were 0.026 nM and 0.065 nM.
Taken in the same sequence, the figures for `CCCCCCCCCCCCO[C@@H]1O[C@H](C(=O)NCCCC[C@H](N)C(=O)NCCCC[C@H](NC(=O)[C@@H](NC(=O)[C@H](Cc2ccccc2)NC(=O)[C@H](CCC(=O)O)NC(=O)[C@@H]2CCCCNC(=O)CC[C@H](NC(=O)[C@H](CC(=O)O)NC(=O)[C@H](CC(C)C)NC(=O)[C@H](Cc3ccc(O)cc3)NC(=O)[C@H](CCCCN)NC(=O)[C@H](CO)NC(=O)[C@H](Cc3ccc(O)cc3)NC(=O)[C@H](CC(=O)O)NC(=O)[C@H](CO)NC(=O)[C@@H](NC(=O)[C@H](Cc3ccccc3)NC(=O)[C@@H](NC(=O)CNC(=O)[C@H](CCC(N)=O)NC(=O)C(C)(C)NC(=O)[C@@H](N)Cc3c[nH]cn3)[C@@H](C)O)[C@@H](C)O)C(=O)N[C@@H](CCC(N)=O)C(=O)N[C@@H](C)C(=O)N[C@@H](C)C(=O)N2)[C@@H](C)CC)C(=O)N[C@@H](Cc2c[nH]c3ccccc23)C(=O)N[C@@H](CC(C)C)C(=O)N[C@@H](CC(C)C)C(=O)N[C@@H](CCC(N)=O)C(=O)N[C@H](C(N)=O)[C@@H](C)O)[C@@H](O)[C@H](O)[C@H]1O` [EU-A1711] were 0.009 nM and 0.026 nM.
Take `CCCCCCCCCCCCCCO[C@@H]1O[C@H](C(=O)NCCCC[C@H](N)C(=O)NCCCC[C@H](NC(=O)[C@@H](NC(=O)[C@H](Cc2ccccc2)NC(=O)[C@H](CCC(=O)O)NC(=O)[C@@H]2CCCCNC(=O)CC[C@H](NC(=O)[C@H](CC(=O)O)NC(=O)[C@H](CC(C)C)NC(=O)[C@H](Cc3ccc(O)cc3)NC(=O)[C@H](CCCCN)NC(=O)[C@H](CO)NC(=O)[C@H](Cc3ccc(O)cc3)NC(=O)[C@H](CC(=O)O)NC(=O)[C@H](CO)NC(=O)[C@@H](NC(=O)[C@H](Cc3ccccc3)NC(=O)[C@@H](NC(=O)CNC(=O)[C@H](CCC(N)=O)NC(=O)C(C)(C)NC(=O)[C@@H](N)Cc3c[nH]cn3)[C@@H](C)O)[C@@H](C)O)C(=O)N[C@@H](CCC(N)=O)C(=O)N[C@@H](C)C(=O)N[C@@H](C)C(=O)N2)[C@@H](C)CC)C(=O)N[C@@H](Cc2c[nH]c3ccccc23)C(=O)N[C@@H](CC(C)C)C(=O)N[C@@H](CC(C)C)C(=O)N[C@@H](CCC(N)=O)C(=O)N[C@H](C(N)=O)[C@@H](C)O)[C@@H](O)[C@H](O)[C@H]1O` [EU-A1712]: the concentration giving a half-maximal response (EC50) on human GLP-1 receptor is 0.037 nM; at human glucagon receptor (read-out: EC50 cAMP Glucagon R, human glucagon receptor in CHO cells (DiscoveRx)) it was 0.175 nM.

Usually EC50 stands for the concentration at which the effect is half-maximal.
